From patent publication US20210038681A1, “PHARMACEUTICAL COMPOSITION FOR TREATING VIRAL HEPATITIS C” (priority 2018, published 2021)
Like-named read-outs stand apart in the source and are kept apart here.

How the values were obtained:
[1] = test system: Wild-type HCV 1b replicon; assay type: cell-based; conditions: Hepatitis C virus, read-out: Mean EC50 (nM)
[2] = test system: HCV 1a Wild-type replicon; experiment: microbe, parasite or virus in culture; conditions: Hepatitis C virus, Huh-7, read-out: Mean EC50 (nM) ± SD
[3] = test system: HCV genotype 1a replicon cells; experiment: Standard 3-day HCV replicon assay; assay type: cell-based; conditions: Hepatitis C virus, 72 h, 3 days, 5% fetal bovine serum
[4] = test system: HCV genotype 1b replicon cells; experiment: Standard 3-day HCV replicon assay; assay type: cell-based; conditions: Hepatitis C virus, 72 h, 3 days, 5% fetal bovine serum
[5] = test system: HCV genotype 2a NS5A replicon cells; experiment: Standard 3-day HCV replicon assay; assay type: cell-based; conditions: Hepatitis C virus, 72 h
[6] = test system: HCV genotype 3a NS5A replicon cells; experiment: Standard 3-day HCV replicon assay; assay type: cell-based; conditions: Hepatitis C virus, 72 h
[7] = test system: HCV genotype 4a NS5A replicon cells; experiment: Standard 3-day HCV replicon assay; assay type: cell-based; conditions: Hepatitis C virus, 72 h
[8] = test system: HCV genotype 5a NS5A replicon cells; experiment: Standard 3-day HCV replicon assay; assay type: cell-based; conditions: Hepatitis C virus, 72 h
[9] = test system: HCV genotype 6a NS5A replicon cells; experiment: Standard 3-day HCV replicon assay; assay type: cell-based; conditions: Hepatitis C virus, 72 h
[10] = test system: HCV genotype 7a NS5A replicon cells; experiment: Standard 3-day HCV replicon assay; assay type: cell-based; conditions: Hepatitis C virus, 72 h
[11] = test system: bovine viral diarrhea virus (BVDV); experiment: Virus-cell protection assay; assay type: cell-based; conditions: Bovine viral diarrhea virus isolates and strains, cell line BT
[12] = test system: human rhinovirus 16 (HRV-16); experiment: Virus-cell protection assay; assay type: cell-based; conditions: Rhinovirus A, HRV16; Virus HRV-16, cell line HeLa
[13] = test system: influenza B virus (Flu-B); experiment: Virus-cell protection assay; assay type: cell-based; conditions: cell line MDCK
[14] = test system: HCV 1a M28T replicon; experiment: microbe, parasite or virus in culture; assay type: cell-based
Description: (§1) The susceptibility degrees of WT replicons in the transient assay were similar to the values obtained from a cell assay using the stable HCV replicons.

[15] = test system: HCV 1a Q30K replicon; experiment: microbe, parasite or virus in culture; assay type: cell-based
Description: as §1

[16] = test system: HCV 1a Q30R replicon; experiment: microbe, parasite or virus in culture; assay type: cell-based
Description: as §1

[17] = test system: HCV 1a WT replicon; experiment: microbe, parasite or virus in culture; assay type: cell-based
Description: as §1

[18] = test system: HCV 1a Y93C replicon; experiment: microbe, parasite or virus in culture; assay type: cell-based
Description: as §1

[19] = test system: HCV 1a Y93H replicon; experiment: microbe, parasite or virus in culture; assay type: cell-based
Description: as §1

[20] = test system: HCV 1a Y93N replicon; experiment: microbe, parasite or virus in culture; assay type: cell-based
Description: as §1

[21] = test system: HCV 1b L31F + Y93H replicon; experiment: microbe, parasite or virus in culture; assay type: cell-based
Description: as §1

[22] = test system: HCV 1b L31F replicon; experiment: microbe, parasite or virus in culture; assay type: cell-based
Description: as §1

[23] = test system: HCV 1b L31V replicon; experiment: microbe, parasite or virus in culture; assay type: cell-based
Description: as §1

[24] = test system: HCV 1b WT replicon; experiment: microbe, parasite or virus in culture; assay type: cell-based
Description: as §1

[25] = test system: HCV 1b Y93H replicon; experiment: microbe, parasite or virus in culture; assay type: cell-based
Description: as §1

[26] = test system: HCV 2a NS5A WT replicon; experiment: microbe, parasite or virus in culture; assay type: cell-based
Description: as §1

[27] = test system: HCV 2a NS5A Y93H replicon; experiment: microbe, parasite or virus in culture; assay type: cell-based
Description: as §1

[28] = test system: HCV 3a NS5A WT replicon; experiment: microbe, parasite or virus in culture; assay type: cell-based
Description: as §1

[29] = test system: HCV 4a NS5A L30H replicon; experiment: microbe, parasite or virus in culture; assay type: cell-based
Description: as §1

[30] = test system: HCV 4a NS5A P58L replicon; experiment: microbe, parasite or virus in culture; assay type: cell-based
Description: as §1

[31] = test system: HCV 4a NS5A WT replicon; experiment: microbe, parasite or virus in culture; assay type: cell-based
Description: as §1

[32] = test system: HCV 4a NS5A Y93H replicon; experiment: microbe, parasite or virus in culture; assay type: cell-based
Description: as §1

[33] = test system: HCV 5a NS5A L31F replicon; experiment: microbe, parasite or virus in culture; assay type: cell-based
Description: as §1

[34] = test system: HCV 5a NS5A WT replicon; experiment: microbe, parasite or virus in culture; assay type: cell-based
Description: as §1

[35] = test system: HCV 6a NS5A WT replicon; experiment: microbe, parasite or virus in culture; assay type: cell-based
Description: as §1

[36] = test system: HCV 1b L31V + Y93H replicon; assay type: cell-based; conditions: HCV genotype 1b, variant L31V + Y93H; EC50 relative to WT
Description: as §1

[37] = test system: HCV 2a NS5A F28S replicon; assay type: cell-based; conditions: HCV genotype 2a, variant F28S; EC50 relative to WT
Description: as §1

[38] = test system: HCV 4a NS5A L30H + Y93H replicon; assay type: cell-based; conditions: HCV genotype 4a, variant L30H + Y93H; EC50 relative to WT
Description: as §1

[39] = test system: HCV 6a NS5A F28S replicon; assay type: cell-based; conditions: HCV genotype 6a, variant F28S; EC50 relative to WT
Description: as §1

[40] = test system: HCV 3a NS5A Y93H replicon cells; assay type: cell-based; conditions: read-out: Mean EC50 (nM) ±SD; HCV genotype 3a, variant Y93H*; replicon cells from cell passage assay
[41] = test system: BVDV, HRV-16, Flu-B; experiment: Virus-cell protection assay, all tested viruses; assay type: cell-based; conditions: Bovine viral diarrhea virus isolates and strains, HRV16, all of BVDV, read-out: EC50 against any of the tested viruses
[42] = test system: HeLa cells; conditions: HeLa H1A cells, 10,000 nM
[43] = test system: MDCK cells; conditions: MDCK cells, 10,000 nM
[44] = in vitro; conditions: cattle, BT cells (uninfected)
[45] = in vitro; conditions: human, HeLa cells (uninfected; HeLa H1A in the text)
[46] = in vitro; conditions: dog, MDCK cells (uninfected)
[47] = Hepatitis C virus, read-out: Mean EC50 (nM) ±SD

CC(C)(C)OC(=O)N[C@H]1CCCCC/C=C\[C@@H]2C[C@@]2(C(=O)NS(=O)(=O)C2CC2)NC(=O)[C@@H]2C[C@@H](OC(=O)N3Cc4cccc(F)c4C3)CN2C1=O [ASC08, Danoprevir]
EC50 [1]: 0.7 nM
EC50 [2]: 5.4 nM

COC(=O)N[C@H](C(=O)N1CCC[C@H]1c1ncc(-c2ccc3cc(-c4ccc5nc([C@@H]6CCCN6C(=O)[C@@H](NC(=O)OC)C(C)C)[nH]c5c4)ccc3c2)[nH]1)C(C)C [ASC16, Ravidasvir]
EC50 ([3]; read-out: EC50): 0.09 ng/mL
EC50 ([3]; read-out: EC50 (nM) Mean ± SD): 0.12 ± 0.01 nM
EC90 ([3]; read-out: EC90): 0.24 ng/mL
EC90 ([3]; read-out: EC90 (nM) Mean ± SD): 0.32 ± 0.02 nM
EC50 ([4]; read-out: EC50): 0.015 ng/mL
EC50 ([4]; read-out: EC50 (nM) Mean ± SD): 0.02 ± 0.002 nM
EC90 ([4]; read-out: EC90): 0.02 ng/mL
EC90 ([4]; read-out: EC90 (nM) Mean ± SD): 0.03 ± 0.004 nM
EC50 [5]: 0.12 ng/mL
EC90 [5]: 0.38 ng/mL
EC50 ([5]; read-out: EC50 (nM) Mean ± SD): 0.14 ± 0.03 nM
EC90 ([5]; read-out: EC90 (nM) Mean ± SD): 0.45 ± 0.1 nM
EC50 [6]: 0.95 ng/mL
EC90 [6]: 2.8 ng/mL
EC50 ([6]; read-out: EC50 (nM) Mean ± SD): 1.14 ± 0.3 nM
EC90 ([6]; read-out: EC90 (nM) Mean ± SD): 3.35 ± 1.3 nM
EC50 [7]: 0.04 ng/mL
EC90 [7]: 0.11 ng/mL
EC50 ([7]; read-out: EC50 (nM) Mean ± SD): 0.05 ± 0.01 nM
EC90 ([7]; read-out: EC90 (nM) Mean ± SD): 0.13 ± 0.015 nM
EC50 [8]: 0.03 ng/mL
EC90 [8]: 0.1 ng/mL
EC50 ([8]; read-out: EC50 (nM) Mean ± SD): 0.04 ± 0.01 nM
EC90 ([8]; read-out: EC90 (nM) Mean ± SD): 0.12 ± 0.02 nM
EC50 [9]: 0.25 ng/mL
EC90 [9]: 0.92 ng/mL
EC50 ([9]; read-out: EC50 (nM) Mean ± SD): 0.3 ± 0.1 nM
EC90 ([9]; read-out: EC90 (nM) Mean ± SD): 1.1 ± 0.3 nM
EC50 [10]: 0.06 ng/mL
EC90 [10]: 0.17 ng/mL
EC50 ([10]; read-out: EC50 (nM) Mean ± SD): 0.07 ± 0.02 nM
EC90 ([10]; read-out: EC90 (nM) Mean ± SD): 0.2 ± 0.05 nM
EC50 [11]: > 10000 nM
EC50 [12]: > 3300 nM
EC50 [13]: > 5000 nM
Fold change ([14]; HCV genotype 1a, variant M28T, EC50 relative to WT): 189
EC50 [14, 47]: 5.5 ± 2.8 nM
Fold change ([15]; HCV genotype 1a, variant Q30K, EC50 relative to WT): 2,965
EC50 [15, 47]: 87 ± 17 nM
Fold change ([16]; HCV genotype 1a, variant Q30R, EC50 relative to WT): 168
EC50 [16, 47]: 4.9 ± 1.3 nM
Fold change ([17]; HCV genotype 1a, WT, EC50 relative to WT): 1
EC50 [17, 47]: 0.03 ± 0.002 nM
Fold change ([18]; HCV genotype 1a, variant Y93C, EC50 relative to WT): 169
EC50 [18, 47]: 5 ± 0.4 nM
Fold change ([19]; HCV genotype 1a, variant Y93H, EC50 relative to WT): 1,630
EC50 [19, 47]: 48 ± 1 nM
Fold change ([20]; HCV genotype 1a, variant Y93N, EC50 relative to WT): 3,876
EC50 ([20]; Hepatitis C virus, read-out: Mean EC50 (nM) ±SD, HCV genotype 1a, variant Y93N): > 100 nM
EC50 ([20]; read-out: Mean EC50 (nM) ±SD, HCV genotype 1a, variant Y93N): 113 ± 7.3 nM
Fold change ([21]; HCV genotype 1b, variant L31F + Y93H, EC50 relative to WT): 2,541
EC50 [21, 47]: 28 ± 5.4 nM
Fold change ([22]; HCV genotype 1b, variant L31F, EC50 relative to WT): 4.0
EC50 [22, 47]: 0.05 ± 0.009 nM
Fold change ([23]; HCV genotype 1b, variant L31V, EC50 relative to WT): 85
EC50 [23, 47]: 0.9 ± 0.1 nM
Fold change ([24]; HCV genotype 1b, WT, EC50 relative to WT): 1
EC50 [24, 47]: 0.01 ± 0.003 nM
Fold change ([25]; HCV genotype 1b, variant Y93H, EC50 relative to WT): 81
EC50 [25, 47]: 0.9 ± 0.06 nM
Fold change ([26]; HCV genotype 2a, WT, EC50 relative to WT): 1
EC50 [26, 47]: 0.12 ± 0.06 nM
Fold change ([27]; HCV genotype 2a, variant Y93H, EC50 relative to WT): 816
EC50 [27, 47]: 96 ± 23 nM
Fold change ([28]; HCV genotype 3a, WT, EC50 relative to WT): 1
EC50 [28, 47]: 1.2 nM
Fold change ([29]; HCV genotype 4a, variant L30H, EC50 relative to WT): 887
EC50 [29, 47]: 14 ± 0.8 nM
Fold change ([30]; HCV genotype 4a, variant P58L, EC50 relative to WT): 197
EC50 [30, 47]: 3 ± 0.09 nM
Fold change ([31]; HCV genotype 4a, WT, EC50 relative to WT): 1
EC50 [31, 47]: 0.02 ± 0.004 nM
Fold change ([32]; HCV genotype 4a, variant Y93H, EC50 relative to WT): 210
EC50 [32, 47]: 3.2 ± 0.2 nM
Fold change ([33]; HCV genotype 5a, variant L31F, EC50 relative to WT): 76
EC50 [33, 47]: 6.1 ± 0.8 nM
Fold change ([34]; HCV genotype 5a, WT, EC50 relative to WT): 1
EC50 [34, 47]: 0.08 ± 0.04 nM
Fold change ([35]; HCV genotype 6a, WT, EC50 relative to WT): 1
EC50 [35, 47]: 0.2 ± 0.04 nM
Fold change [36]: 37,231
Fold change [37]: 4,575
Fold change [38]: 57,587
Fold change [39]: 2,146
EC50 [40]: 1040 nM
EC50 [1]: 0.01 nM
EC50 [41]: > 3300 nM
cytotoxicity at the highest test concentration [42]: significant cytotoxicity
cytotoxicity at the highest test concentration [43]: significant cytotoxicity
CC50 [44]: > 10000 nM
CC50 [45]: > 3300 nM
CC50 [46]: > 5000 nM
EC50 [2]: 0.03 nM
